Assay results reported in patent US20230391824A1, “RATIONALE, DESIGN, SYNTHESIS AND VALIDATION OF A SMALL MOLECULE ANTICANCER AGENT” (priority 2021, published 2023).
Where two headings read alike, the source gives them in different places.

Experiments:
Solubility = format: physicochemical
LIN28B protein = molecular target: T1, LIN28B protein (Homo sapiens, UniProt Q6ZN17); assay: Western blotting of Lin28B protein in cancer cell models; format: cell-based; details: YP-MEL, BT-37, NT-2 cells; at the tested dosages
T1 construct: in a panel of endogenously LIN28 expressing cancer cell models; endogenous in cells; host or cells: YP-MEL, BT-12, BT-37, NT-2 (NTERA)
T1 sequence (Q6ZN17 1-250): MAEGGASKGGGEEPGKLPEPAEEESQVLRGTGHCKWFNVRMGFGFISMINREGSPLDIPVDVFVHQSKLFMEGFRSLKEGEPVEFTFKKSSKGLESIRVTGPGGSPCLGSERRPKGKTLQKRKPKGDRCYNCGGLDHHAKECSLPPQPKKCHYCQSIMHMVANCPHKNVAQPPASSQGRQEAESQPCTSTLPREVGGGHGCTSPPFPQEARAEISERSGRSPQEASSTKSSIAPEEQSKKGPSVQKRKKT
Experimental: FIG. 5: Compound of formula (I) mixture, containing the two isomers (P1+P2) causes significant reduction in Lin28A protein from 5 μM onwards, in a panel of endogenously LIN28 expressing cancer cell models. […] LIN28A and LIN28B expression profile in pediatric CNS cancer cell lines, 96-hr post-treatment with Compound of formula (I). SDS-PAGE on 10% polyacrylamide gel of total cell lysates from untreated cells harvested at 80-90% confluency. Samples loaded with volumes for 20 μg protein. LIN28A and LIN28B proteins were detected using the anti-LIN28A antibody (#8706; Cell Signaling Technology) and anti-LIN28B antibody (#11965; Cell Signalling Technology) at 1:2000 dilutions. T47D: adult breast cancer (LIN28A expressing); YPMEL: malignant melanoma derived from Neurocutaneous Melanosis (NCM) (Lin28A and Lin28B expressing); BT-12: pediatric atypical-teratoid rhabdoid tumor (AT/RT). […]
The proteins were extracted from the same samples as the RNA using the RIPA lysis buffer. […] The proteins were detected using the anti-Lin28A antibody (#8706; Cell Signaling Technology), anti-Lin28B antibody (#11965, Cell Signaling Technology) the anti-beta-actin antibody at respectively 1:2000, 1:2000 and 1:5000 dilutions.

YP-MEL NCM tumor = YP-MEL NCM tumor xenograft in SCID mice; format: in vivo; details: female SCID mice, 4 mg/kg I.P, every 2 days
Experimental: FIG. 13A&B: Female SCID YP-MEL NCM tumor bearing mice treated with 4 mg/kg Compound of formula (I) (P1 version) intraperitoneally (I.P). […] (B) Tumor areas were measured with a Vernier caliper (prior to each treatment cycle). Animals were euthanized when the control (0.1% DMSO:PBS) treated mice reached the defined endpoint of 225 mm^2. Data representative of at least 5 independent experiments.
All animal procedures were carried out in accordance with the guidelines of the Canadian Council on Animal Care and the NIH guidelines on the care and use of laboratory animals. All protocols were reviewed and approved by the Animal Care Committee of the University of Calgary (Protocol approval number: AC21-0147). Six- to eight-week-old female or male CB17 severe combined immunodeficiency (SCID) mice (Charles River Laboratories, Saint-Constant, QC, Canada) were subcutaneously injected in the right flank with 3×10^6 YP-MEL or NT-2 cells suspended in 0.1 mL sterile PBS. After tumor injection, animals with detectable tumor growth of at least 50 mm^2 were randomized into groups. […] Animals and respective cages were monitored for food and bedding supplies daily; doses were injected every 2 days and tumor areas were measured with a Vernier caliper (prior to each treatment cycle). […]

Lin28A protein = molecular target: T2, Lin28A protein (Homo sapiens, UniProt Q9H9Z2); assay: Western blotting of Lin28A protein in cancer cell models; format: cell-based
T2 construct: in a panel of endogenously LIN28 expressing cancer cell models; endogenous in cells; host or cells: T47D, YP-MEL, BT-12, BT-37, NT-2 (NTERA)
T2 sequence (Q9H9Z2 1-209): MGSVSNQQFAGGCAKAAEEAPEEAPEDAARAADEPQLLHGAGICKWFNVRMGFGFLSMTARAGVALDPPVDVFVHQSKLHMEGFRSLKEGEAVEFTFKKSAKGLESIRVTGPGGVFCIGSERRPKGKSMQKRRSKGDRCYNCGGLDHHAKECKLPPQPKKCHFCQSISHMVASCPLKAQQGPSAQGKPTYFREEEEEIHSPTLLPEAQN
Experimental: FIG. 5: Compound of formula (I) mixture, containing the two isomers (P1+P2) causes significant reduction in Lin28A protein from 5 μM onwards, in a panel of endogenously LIN28 expressing cancer cell models. […] LIN28A and LIN28B expression profile in pediatric CNS cancer cell lines, 96-hr post-treatment with Compound of formula (I). SDS-PAGE on 10% polyacrylamide gel of total cell lysates from untreated cells harvested at 80-90% confluency. Samples loaded with volumes for 20 μg protein. LIN28A and LIN28B proteins were detected using the anti-LIN28A antibody (#8706; Cell Signaling Technology) and anti-LIN28B antibody (#11965; Cell Signalling Technology) at 1:2000 dilutions. T47D: adult breast cancer (LIN28A expressing); YPMEL: malignant melanoma derived from Neurocutaneous Melanosis (NCM) (Lin28A and Lin28B expressing); BT-12: pediatric atypical-teratoid rhabdoid tumor (AT/RT).
FIG. 7A-C: To determine the differences in the biological activity of the two isomers (P1+P2) of Compound of formula (I), we tested the effects of purified and separated P1 and P2 isomers on the protein expression of Lin28A and Lin28B. (A) YP-MEL (NCM). (B) BT-37 (AT/RT). (C) NT-2 (NTERA) (Testicular cancer).
The proteins were extracted from the same samples as the RNA using the RIPA lysis buffer. The protein extracts (20 μg) were run on 10% SDS-PAGE and transferred on a nitrocellulose blotting membrane 0.22 μm (GE Healthcare) using the Trans-Blot® SD semi-dry transfer devise (Biorad). The proteins were detected using the anti-Lin28A antibody (#8706; Cell Signaling Technology), anti-Lin28B antibody (#11965, Cell Signaling Technology) the anti-beta-actin antibody at respectively 1:2000, 1:2000 and 1:5000 dilutions.

For `CC[C@H](C)[C@H](NC(=O)[C@H](Cc1ncc[nH]1)NC(=O)c1cccc(C(N)=O)c1)C(=O)Nc1ccc(O)c(-c2nc3ccccc3s2)c1` [Compound P1], the solubility (Solubility; DMSO, organic solvent or mixture, read-out: solubility in DMSO) was 100 mg/mL, the solubility (Solubility; organic solvent or mixture, DMSO, freeze dried, RP-HPLC purified P1, read-out: solubility in DMSO) was 10 mM and the solubility (Solubility; water/PBS/culture medium, aqueous buffer, read-out: solubility in water/PBS/culture medium) was 0.05 mM. For the same molecule, the Lin28B expression (LIN28B protein) was “remained unaltered”, the “growth of NCM tumors” value (YP-MEL NCM tumor) was “significantly reduced the growth” and the “selectivity relative to the crude mixture containing P1+P2” value (Lin28A protein; Lin28A inhibition, FIG. 7 versus FIG. 5) was 5 times. The “concentration from which Lin28A is selectively inhibited” value (Lin28A protein; YP-MEL, BT-37, NT-2 cells) was at least 1 µM.
